Measurements taken from US20250275540A1, “USE OF PROTOPORPHYRINOGEN OXIDASE” (BEIJING DABEINONG BIOTECHNOLOGY CO., LTD., priority 2022, published 2025).

Test system: transgenic soybean plants
Experiment: Detection of the herbicide tolerance of the transgenic soybean plants
Assay type: in vivo
Details: for The grade of pesticide damage/plant: 0 / The grade of pesticide damage/plant: 1 / The grade of pesticide damage/plant: 2 / The grade of pesticide damage/plant: 3: 7 DAT
[1] = genotype Control vector, 120 g ai/ha
[2] = genotype Control vector, 240 g ai/ha
[3] = genotype PPO-AP-01, 120 g ai/ha
[4] = genotype PPO-AP-01, 240 g ai/ha
[5] = genotype PPO-EC-01, 120 g ai/ha
[6] = genotype PPO-EC-01, 240 g ai/ha

SMILES: C#CCN1C(=O)COc2cc(F)c(N3C(=O)C4=C(CCCC4)C3=O)cc21 [flumioxazin, 2-[7-fluoro-3,4-dihydro-3-oxo-4-(2-propynyl)-2H-1,4-benzoxazin-6-yl]-4,5,6,7-tetrahydro-1H-isoindole-1,3(2H)-dione]
- The grade of pesticide damage/plant: 0 (genotype CK, 120 g ai/ha): 0 plant
- The grade of pesticide damage/plant: 1 (genotype CK, 120 g ai/ha): 0 plant
- The grade of pesticide damage/plant: 2 (genotype CK, 120 g ai/ha): 0 plant
- The grade of pesticide damage/plant: 3 (genotype CK, 120 g ai/ha): 16 plant
- The grade of pesticide damage/plant: 0 (genotype CK, 240 g ai/ha): 0 plant
- The grade of pesticide damage/plant: 1 (genotype CK, 240 g ai/ha): 0 plant
- The grade of pesticide damage/plant: 2 (genotype CK, 240 g ai/ha): 0 plant
- The grade of pesticide damage/plant: 3 (genotype CK, 240 g ai/ha): 16 plant
- The grade of pesticide damage/plant: 0 [1]: 0 plant
- The grade of pesticide damage/plant: 1 [1]: 0 plant
- The grade of pesticide damage/plant: 2 [1]: 0 plant
- The grade of pesticide damage/plant: 3 [1]: 16 plant
- The grade of pesticide damage/plant: 0 [2]: 0 plant
- The grade of pesticide damage/plant: 1 [2]: 0 plant
- The grade of pesticide damage/plant: 2 [2]: 0 plant
- The grade of pesticide damage/plant: 3 [2]: 16 plant
- The grade of pesticide damage/plant: 0 [3]: 0 plant
- The grade of pesticide damage/plant: 1 [3]: 0 plant
- The grade of pesticide damage/plant: 2 [3]: 0 plant
- The grade of pesticide damage/plant: 3 [3]: 16 plant
- The grade of pesticide damage/plant: 0 [4]: 0 plant
- The grade of pesticide damage/plant: 1 [4]: 0 plant
- The grade of pesticide damage/plant: 2 [4]: 0 plant
- The grade of pesticide damage/plant: 3 [4]: 16 plant
- tolerance to the herbicide (in words) (genotype PPO-AP-01, at different concentrations): no flumioxazin tolerance
- The grade of pesticide damage/plant: 0 [5]: 16 plant
- The grade of pesticide damage/plant: 1 [5]: 0 plant
- The grade of pesticide damage/plant: 2 [5]: 0 plant
- The grade of pesticide damage/plant: 3 [5]: 0 plant
- The grade of pesticide damage/plant: 0 [6]: 15 plant
- The grade of pesticide damage/plant: 1 [6]: 1 plant
- The grade of pesticide damage/plant: 2 [6]: 0 plant
- The grade of pesticide damage/plant: 3 [6]: 0 plant
- The grade of pesticide damage/plant: 0 (genotype PPOA-01, 120 g ai/ha): 16 plant
- The grade of pesticide damage/plant: 1 (genotype PPOA-01, 120 g ai/ha): 0 plant
- The grade of pesticide damage/plant: 2 (genotype PPOA-01, 120 g ai/ha): 0 plant
- The grade of pesticide damage/plant: 3 (genotype PPOA-01, 120 g ai/ha): 0 plant
- The grade of pesticide damage/plant: 0 (genotype PPOA-01, 240 g ai/ha): 14 plant
- The grade of pesticide damage/plant: 1 (genotype PPOA-01, 240 g ai/ha): 2 plant
- The grade of pesticide damage/plant: 2 (genotype PPOA-01, 240 g ai/ha): 0 plant
- The grade of pesticide damage/plant: 3 (genotype PPOA-01, 240 g ai/ha): 0 plant
- The grade of pesticide damage/plant: 0 (genotype PPOB-01, 120 g ai/ha): 16 plant
- The grade of pesticide damage/plant: 1 (genotype PPOB-01, 120 g ai/ha): 0 plant
- The grade of pesticide damage/plant: 2 (genotype PPOB-01, 120 g ai/ha): 0 plant
- The grade of pesticide damage/plant: 3 (genotype PPOB-01, 120 g ai/ha): 0 plant
- The grade of pesticide damage/plant: 0 (genotype PPOB-01, 240 g ai/ha): 15 plant
- The grade of pesticide damage/plant: 1 (genotype PPOB-01, 240 g ai/ha): 1 plant
- The grade of pesticide damage/plant: 2 (genotype PPOB-01, 240 g ai/ha): 0 plant
- The grade of pesticide damage/plant: 3 (genotype PPOB-01, 240 g ai/ha): 0 plant
- The grade of pesticide damage/plant: 0 (genotype PPOC-01, 120 g ai/ha): 16 plant
- The grade of pesticide damage/plant: 1 (genotype PPOC-01, 120 g ai/ha): 0 plant
- The grade of pesticide damage/plant: 2 (genotype PPOC-01, 120 g ai/ha): 0 plant
- The grade of pesticide damage/plant: 3 (genotype PPOC-01, 120 g ai/ha): 0 plant
- The grade of pesticide damage/plant: 0 (genotype PPOC-01, 240 g ai/ha): 16 plant
- The grade of pesticide damage/plant: 1 (genotype PPOC-01, 240 g ai/ha): 0 plant
- The grade of pesticide damage/plant: 2 (genotype PPOC-01, 240 g ai/ha): 0 plant
- The grade of pesticide damage/plant: 3 (genotype PPOC-01, 240 g ai/ha): 0 plant
- The grade of pesticide damage/plant: 0 (genotype PPOD-01, 120 g ai/ha): 16 plant
- The grade of pesticide damage/plant: 1 (genotype PPOD-01, 120 g ai/ha): 0 plant
- The grade of pesticide damage/plant: 2 (genotype PPOD-01, 120 g ai/ha): 0 plant
- The grade of pesticide damage/plant: 3 (genotype PPOD-01, 120 g ai/ha): 0 plant
- The grade of pesticide damage/plant: 0 (genotype PPOD-01, 240 g ai/ha): 16 plant
- The grade of pesticide damage/plant: 1 (genotype PPOD-01, 240 g ai/ha): 0 plant
- The grade of pesticide damage/plant: 2 (genotype PPOD-01, 240 g ai/ha): 0 plant
- The grade of pesticide damage/plant: 3 (genotype PPOD-01, 240 g ai/ha): 0 plant
- The grade of pesticide damage/plant: 0 (genotype PPOE-01, 120 g ai/ha): 16 plant
- The grade of pesticide damage/plant: 1 (genotype PPOE-01, 120 g ai/ha): 0 plant
- The grade of pesticide damage/plant: 2 (genotype PPOE-01, 120 g ai/ha): 0 plant
- The grade of pesticide damage/plant: 3 (genotype PPOE-01, 120 g ai/ha): 0 plant
- The grade of pesticide damage/plant: 0 (genotype PPOE-01, 240 g ai/ha): 15 plant
- The grade of pesticide damage/plant: 1 (genotype PPOE-01, 240 g ai/ha): 1 plant
- The grade of pesticide damage/plant: 2 (genotype PPOE-01, 240 g ai/ha): 0 plant
- The grade of pesticide damage/plant: 3 (genotype PPOE-01, 240 g ai/ha): 0 plant
- The grade of pesticide damage/plant: 0 (genotype PPOF-01, 120 g ai/ha): 16 plant
- The grade of pesticide damage/plant: 1 (genotype PPOF-01, 120 g ai/ha): 0 plant
- The grade of pesticide damage/plant: 2 (genotype PPOF-01, 120 g ai/ha): 0 plant
- The grade of pesticide damage/plant: 3 (genotype PPOF-01, 120 g ai/ha): 0 plant
- The grade of pesticide damage/plant: 0 (genotype PPOF-01, 240 g ai/ha): 14 plant
- The grade of pesticide damage/plant: 1 (genotype PPOF-01, 240 g ai/ha): 2 plant
- The grade of pesticide damage/plant: 2 (genotype PPOF-01, 240 g ai/ha): 0 plant
- The grade of pesticide damage/plant: 3 (genotype PPOF-01, 240 g ai/ha): 0 plant
- tolerance to the herbicide (in words) (genotypes PPOA-01 to PPOF-01 and PPO-EC-01, at different concentrations): high-resistant tolerance
